According to ChEMBL document CHEMBL4480388, “Rad51/BRCA2 disruptors inhibit homologous recombination and synergize with olaparib in pancreatic cancer cells” (Eur J Med Chem, 2019):
Activity calls are given as the source filed them. No cut-off for these calls is given here.

Legend:
[1] = target: T1, DNA repair protein RAD51 homolog 1 (Homo sapiens, UniProt Q06609); assay: Displacement of N-terminal biotinylated-BRC4 from recombinant human Rad51 expressed in Escherichia coli by ELISA
T1 sequence (Q06609 whole entry): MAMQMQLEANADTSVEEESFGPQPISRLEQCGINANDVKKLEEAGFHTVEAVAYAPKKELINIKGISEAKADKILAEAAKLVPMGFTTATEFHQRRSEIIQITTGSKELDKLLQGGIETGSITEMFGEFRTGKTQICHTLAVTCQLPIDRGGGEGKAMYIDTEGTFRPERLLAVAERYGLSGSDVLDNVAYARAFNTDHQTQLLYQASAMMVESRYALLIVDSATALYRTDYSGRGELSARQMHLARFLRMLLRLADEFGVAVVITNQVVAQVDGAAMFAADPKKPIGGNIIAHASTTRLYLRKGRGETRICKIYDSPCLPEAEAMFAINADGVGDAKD

[2] = target: T2, DNA repair protein RAD51 homolog 1 (Homo sapiens) (UniProt Q06609); assay: Binding affinity to Rad51 in human BxPC3 cells assessed as reduction in protein-mediated homologous recombination at 40 uM measured after 16 hrs by reporter gene based PCR analysis relative to control; type: cell-based; design: scale not given: the % may be the effect or the level left
T2 sequence (whole entry): T1 sequence (Q06609 whole entry)

CAPAN-1 [3] = assay: Synergistic cytotoxicity against human Capan1 cells assessed as reduction in cell viability at 40 uM measured after 72 hrs in presence of PARP inhibitor olaparib by crystal violet staining based assay; type: functional
CAPAN-1 [4] = assay: Effect on homologous recombination in human Capan1 cells at 20 to 40 uM measured after 16 hrs by reporter gene based PCR analysis; type: functional, cell-based
BXPC-3 [5] = assay: Synergistic cytotoxicity against human BxPC3 cells assessed as reduction in cell viability at 40 uM measured after 72 hrs in presence of PARP inhibitor olaparib by crystal violet staining based assay; type: functional
[6] = target: T2, DNA repair protein RAD51 homolog 1 (Homo sapiens); assay: Binding affinity to Rad51 in human BxPC3 cells assessed as reduction in protein-mediated homologous recombination at 5 to 30 uM measured after 16 hrs by reporter gene based PCR analysis; type: cell-based
[7] = Solubility of the compound in RPMI 1640 medium; type: physicochemical
CAPAN-1 [8] = assay: Synergistic cytotoxicity against human Capan1 cells assessed as reduction in cell viability at 20 uM measured after 72 hrs in presence of PARP inhibitor olaparib by crystal violet staining based assay; type: functional
[9] = target: T2, DNA repair protein RAD51 homolog 1 (Homo sapiens); assay: Binding affinity to Rad51 in human BxPC3 cells assessed as reduction in protein-mediated homologous recombination at 20 uM measured after 16 hrs by reporter gene based PCR analysis relative to control; type: cell-based; design: scale not given: the % may be the effect or the level left
BXPC-3 [10] = assay: Synergistic cytotoxicity against human BxPC3 cells assessed as reduction in cell viability measured after 72 hrs in presence of PARP inhibitor olaparib by crystal violet staining based assay; type: functional
BXPC-3 [11] = assay: Induction of DNA damage in human BxPC3 cells assessed as increase in gammaH2AX phosphorylation level at 20 uM measured after 144 hrs in presence of PARP inhibitor olaparib by Western blotting analysis relative to control; type: functional
BXPC-3 [12] = assay: Induction of apoptosis in human BxPC3 cells assessed as increase in BAX level at 20 uM measured after 144 hrs by Western blotting analysis; type: functional, cell-based
BXPC-3 [13] = assay: Induction of apoptosis in human BxPC3 cells assessed as caspase-3 activation at 20 uM measured after 144 hrs by Western blotting analysis; type: functional, cell-based
BXPC-3 [14] = assay: Synergistic cytotoxicity against human BxPC3 cells assessed as reduction in cell viability at 20 uM measured after 72 hrs in presence of PARP inhibitor olaparib by crystal violet staining based assay; type: functional
BXPC-3 [15] = assay: Induction of apoptosis in human BxPC3 cells assessed as increase in PUMA level at 20 uM measured after 144 hrs by Western blotting analysis; type: functional, cell-based
BXPC-3 [16] = assay: Synergistic cytotoxicity against human BxPC3 cells assessed as combination index at 20 uM measured after 144 hrs in presence of PARP inhibitor olaparib by CellTox green dye based fluorescence assay; type: functional
CAPAN-1 [17] = assay: Effect on homologous recombination in human Capan1 cells at 10 to 20 uM measured after 16 hrs by reporter gene based PCR analysis; type: functional, cell-based
BXPC-3 [18] = assay: Induction of DNA damage in human BxPC3 cells assessed as increase in gammaH2AX phosphorylation level at 20 uM measured after 144 hrs by Western blotting analysis; type: functional, cell-based
BXPC-3 [19] = assay: Synergistic cytotoxicity against human BxPC3 cells assessed as reduction in cell viability at 20 uM measured after 144 hrs in presence of PARP inhibitor olaparib by CellTox green dye based fluorescence assay; type: functional

SMILES	EC50 [1]	further results
O=C(CSc1nnc(Cn2c(=O)sc3ccccc32)n1CCc1ccccc1)NC1CCCC1	–	EC50 ([1]; read-out: EC50): 53 µM
O=C(CSc1nnc(Cn2c(=O)sc3ccccc32)n1CCc1ccccc1)NC1CC1	Not Active	–
Cl.NCc1ccc(-c2nnc(SCC(=O)NC3CCCC3)n2CCc2ccccc2)cc1	Not Active	–
O=C(CSc1nnc(Cn2c(=O)sc3ccccc32)n1CCc1ccccc1)NCc1ccccc1	Not Active	–
Cc1ccccc1CCn1c(Cn2c(=O)sc3ccccc32)nnc1SCC(=O)NC1CCCC1	–	EC50 ([1]; read-out: EC50): 100 µM
O=C(CSc1nnc(Cn2c(=O)sc3ccccc32)n1CCCc1ccccc1)NC1CC1	–	Activity [2]: 24%; EC50 ([1]; read-out: EC50): 24 µM; Activity (CAPAN-1 [3]): inactive; Activity (CAPAN-1 [4]): inactive; Activity (BXPC-3 [5]): inactive
NC(=O)CSc1nnc(Cn2c(=O)sc3ccccc32)n1CCc1ccccc1	Not Active	–
O=C(CSc1nnc(Cn2c(=O)sc3ccccc32)n1CCc1ccccc1)NCc1ccc(F)cc1	Not Active	–
O=C(CSc1nnc(Cn2c(=O)sc3ccccc32)n1CCc1cccc(F)c1)NC1CCCC1	Not Active	–
O=C(CSc1nnc(Cn2c(=O)sc3ccc(F)cc32)n1CCc1ccccc1)NC1CCCC1	Not Active	–
O=C(CSc1nncn1CCc1ccccc1)NC1CCCC1	Not Active	–
O=C(CSc1nnc(Cn2c(=O)sc3ccccc32)n1CCc1ccc(F)cc1)NC1CCCC1	Not Active	–
O=C(CSc1nnc(Cn2c(=O)[nH]c3ccccc32)n1CCCc1ccccc1)NC1CCCC1	Not Active	–
O=C(CSc1nnc(Cn2c(=O)sc3ccccc32)n1CCc1ccccc1)NC1CCCCC1	Not Active	–
Cc1nnc(SCC(=O)NC2CCCC2)n1CCc1ccccc1	Not Active	–
O=c1sc2ccccc2n1Cc1nnc(S)n1CCc1ccccc1	Not Active	–
O=C(CSc1nnc(Cn2c(=O)sc3ccccc32)n1CCCc1ccccc1)Nc1ccccc1	Not Active	–
O=C(CSc1nnc(Cn2c(=O)sc3ccccc32)n1CCc1ccccc1O)NC1CCCC1	Not Active	–
O=C(CSc1nnc(Cn2c(=O)sc3ccccc32)n1CCCc1ccncc1)NC1CCCC1	Not Active	–
Cl.Nc1cccn(Cc2nnc(SCC(=O)NC3CCCC3)n2CCCc2ccccc2)c1=O	Not Active	–
O=C(CSc1nnc(Cn2ccsc2=O)n1CCCc1ccccc1)NC1CCCC1	Not Active	–

SMILES	EC50 [1]	further results
O=C(CSc1nnc(Cn2c(=O)sc3ccccc32)n1CCc1ccccc1)N1CCCC1	Not Active	–
O=C(CSc1nnc(Cn2c(=O)oc3ccccc32)n1CCCc1ccccc1)NC1CCCC1	–	EC50 ([1]; read-out: EC50): 90 µM
O=C(CSc1nnc(Cn2c(=O)sc3ccccc32)n1CCCc1ccccc1)NC1CCCC1	–	EC50 ([1]; read-out: EC50): 25 µM; Activity [6]: inactive
O=C(CSc1nnc(Cn2c(=O)sc3ccccc32)n1CCc1cccc(O)c1)NC1CCCC1	Not Active	–
O=C(CSc1nnc(Cn2c(=O)sc3ccc(O)cc32)n1CCc1ccccc1)NC1CCCC1	Not Active	–
COc1ccc2sc(=O)n(Cc3nnc(SCC(=O)NC4CCCC4)n3CCc3ccccc3)c2c1	Not Active	–
Cc1ccc(C#N)c(=O)n1Cc1nnc(SCC(=O)NC2CCCC2)n1CCCc1ccccc1	Not Active	–
O=C(CSc1nnc(Cn2c(=O)sc3ccccc32)n1CCCc1ccccc1)NC1CCC1	–	solubility [7]: Insoluble; EC50 ([1]; read-out: EC50): 42 µM
Cc1cccc(CCn2c(Cn3c(=O)sc4ccccc43)nnc2SCC(=O)NC2CCCC2)c1	Not Active	–
O=C(CSc1nnc(Cn2c(=O)sc3ccccc32)n1CCc1ccccc1F)NC1CCCC1	Not Active	–
O=C(CSc1nnc(Cn2c(=O)sc3ccccc32)n1CCCc1ccccc1)NC1CCCCC1	–	Activity (CAPAN-1 [8]): inactive; Activity [9]: 40%; Activity (BXPC-3 [10]): Dose-dependent effect; Activity (BXPC-3 [11]): >70%; EC50 ([1]; read-out: EC50): 8 µM; Activity (BXPC-3 [12]): inactive; Activity (BXPC-3 [13]): inactive; Activity (BXPC-3 [14]): Active; Activity (BXPC-3 [15]): inactive; CI (BXPC-3 [16]): 0.76; Activity (CAPAN-1 [17]): inactive; Activity (BXPC-3 [18]): inactive; Activity (BXPC-3 [19]): Active
O=C(CSc1nnc(Cn2c(=O)sc3ccccc32)n1CCCc1ccccn1)NC1CCCC1	Not Active	–
O=C(CSc1nnc(Cn2c(=O)sc3ccccc32)n1CCCc1ccccc1)C1CCCC1	Not Active	–
O=C(CSc1nnc(CN2CCSC2=O)n1CCCc1ccccc1)NC1CCCC1	Not Active	–
O=C(CSc1nnc(Cn2c(=O)sc3ccccc32)n1CCc1ccccc1)Nc1ccccc1	–	EC50 ([1]; read-out: EC50): 95 µM
O=C(CSc1nnc(Cn2c(=O)sc3ccccc32)n1CCCc1cccnc1)NC1CCCC1	Not Active	–
CN1CCC(NC(=O)CSc2nnc(Cn3c(=O)sc4ccccc43)n2CCCc2ccccc2)CC1	Not Active	–
O=C(CSc1nnc(Cn2c(=O)sc3ccccc32)n1CCc1ccccc1)N1CCOCC1	Not Active	–
O=C(CSc1nnc(Cn2c(=O)sc3ccccc32)n1CCCc1ccccc1)N1CCCCC1	Not Active	–
O=C(CSc1nnc(CNc2ccccc2)n1CCc1ccccc1)NC1CCCC1	Not Active	–
